According to ChEMBL document CHEMBL5137015, “Design, synthesis, and evaluation of a novel series of mono-indolylbenzoquinones derivatives for the potential treatment of breast cancer” (Eur J Med Chem, 2022):
Activity calls are given as the source filed them. The rule behind the calls is not given here.

Assays:
[1] = system: MDA-MB-231; experiment: Antiproliferative activity against human MDA-MB-231 cells assessed as inhibition of cell growth by MTT assay; type: functional, cell-based
[2] = system: HeLa; experiment: Antiproliferative activity against human HeLa cells assessed as inhibition of cell growth by MTT assay; type: functional, cell-based
[3] = system: A549; experiment: Antiproliferative activity against human A549 cells assessed as inhibition of cell growth by MTT assay; type: functional, cell-based
[4] = Toxicity in Balb/c mouse implanted with mouse 4T1 cells assessed as liver lesions at 50 mg/kg administered intratumorally every four days for 14 days in the presence of liquid cyanoacrylate by H&E staining based histopathological analysis; type: organism-based; conditions: in vivo, other, 336 h, route it(Intratumoral), time 14 day
[5] = system: 4T1; experiment: Antitumor activity against mouse 4T1 cells implanted in Balb/c mouse assessed as tumor growth inhibition by measuring T/C ratio at 50 mg/kg administered intratumorally every four days for 14 days in the presence of liquid cyanoacrylate; type: functional; conditions: route it(Intratumoral), time 14 day
[6] = system: 4T1; experiment: Antitumor activity against mouse 4T1 cells implanted in Balb/c mouse assessed as TUNEL positive cells at 50 mg/kg administered intratumorally every four days for 14 days in the presence of liquid cyanoacrylate by TUNEL staining analysis; type: functional; conditions: route it(Intratumoral), time 14 day
[7] = system: 4T1; experiment: Antitumor activity against mouse 4T1 cells implanted in Balb/c mouse assessed as tumor growth inhibition at 50 mg/kg administered intratumorally every four days for 14 days in the presence of liquid cyanoacrylate relative to control; type: functional; conditions: 4T1, 336 h, route it(Intratumoral), time 14 day, read-out: TGI
[8] = system: Mus musculus; experiment: Protection of Balb/c mouse spleen implanted with mouse 4T1 cells at 50 mg/kg administered intratumorally every four days for 14 days in the presence of liquid cyanoacrylate; type: functional, organism-based; conditions: route it(Intratumoral), time 14.0 day
[9] = Toxicity in Balb/c mouse implanted with mouse 4T1 cells assessed as heart lesions at 50 mg/kg administered intratumorally every four days for 14 days in the presence of liquid cyanoacrylate by H&E staining based histopathological analysis; type: organism-based; conditions: in vivo, other, 336 h, route it(Intratumoral), time 14 day
[10] = Toxicity in Balb/c mouse implanted with mouse 4T1 cells assessed as spleen lesions at 50 mg/kg administered intratumorally every four days for 14 days in the presence of liquid cyanoacrylate by H&E staining based histopathological analysis; type: organism-based; conditions: in vivo, other, 336 h, route it(Intratumoral), time 14 day
[11] = Toxicity in Balb/c mouse implanted with mouse 4T1 cells assessed as lung lesions at 50 mg/kg administered intratumorally every four days for 14 days in the presence of liquid cyanoacrylate by H&E staining based histopathological analysis; type: organism-based; conditions: in vivo, other, 336 h, route it(Intratumoral), time 14 day
[12] = system: 4T1; experiment: Antitumor activity against mouse 4T1 cells implanted in Balb/c mouse assessed as nuclei disappearance at 50 mg/kg administered intratumorally every four days for 14 days in the presence of liquid cyanoacrylate; type: functional, organism-based; conditions: route it(Intratumoral), time 14.0 day
[13] = Toxicity in Balb/c mouse implanted with mouse 4T1 cells assessed as kidney lesions at 50 mg/kg administered intratumorally every four days for 14 days in the presence of liquid cyanoacrylate by H&E staining based histopathological analysis; type: organism-based; conditions: in vivo, other, 336 h, route it(Intratumoral), time 14 day
[14] = system: 4T1; experiment: Antitumor activity against mouse 4T1 cells implanted in Balb/c mouse assessed as apoptotic rate of dissected tumor cell at 50 mg/kg administered intratumorally every four days for 14 days in the presence of liquid cyanoacrylate by flow cytometric analysis (reference value: 64.83%); type: functional; conditions: route it(Intratumoral), time 14 day
[15] = system: MDA-MB-231; experiment: Induction of apoptosis in human MDA-MB-231 cells assessed as apoptotic cells at 10 uM incubated for 24 hrs by Annexin V-FITC/propidium iodide staining based flow cytometric method (reference value: 5.68%); type: functional
[16] = system: MDA-MB-231; experiment: Induction of cell cycle arrest in human MDA-MB-231 cells assessed as decrease in G1 phase cells at 10 uM incubated for 24 hrs by PI staining based flow cytometric analysis (reference value: 74.44%); type: functional; design: scale not given: the % may be the effect or the level left
[17] = system: MDA-MB-231; experiment: Induction of cell cycle arrest in human MDA-MB-231 cells assessed as decrease in S phase cells at 10 uM incubated for 24 hrs by PI staining based flow cytometric analysis (reference value: 16.61%); type: functional; design: scale not given: the % may be the effect or the level left
[18] = system: MDA-MB-231; experiment: Induction of cell cycle arrest in human MDA-MB-231 cells assessed as increase in G2 phase cells at 10 uM incubated for 24 hrs by PI staining based flow cytometric analysis (reference value: 8.95%); type: functional

Structure (SMILES)	IC50 [1] [nM]	IC50 [2] [nM]	IC50 [3] [nM]	further results
COc1ccc(CCNC2=C(Cl)C(=O)C(c3c(C)[nH]c4ccccc34)=C(Cl)C2=O)cc1OC	290	6300	720	
Cn1c(CCCC(=O)O)nc2cc(N(CCCl)CCCl)ccc21 [BENDAMUSTINE]		> 20000		
Cc1[nH]c2ccccc2c1C1=C(Cl)C(=O)C(Cl)=C(N2CCN(C=O)CC2)C1=O	120	350	170	
COC(=O)/C=C/C(=O)OCCNC1=C(Cl)C(=O)C(c2c(C)[nH]c3ccccc23)=C(Cl)C1=O	110	220	150	
Cc1[nH]c2ccccc2c1C1=C(Cl)C(=O)C(NCCOc2ccccc2)=C(Cl)C1=O	730	5050	7090	
COC(=O)/C=C/C(=O)OCCNC1=C(Cl)C(=O)C(Cl)=C(c2c(C)[nH]c3ccccc23)C1=O	140	110	340	
O=C1c2c(O)ccc(O)c2C(=O)c2c(NCCNCCO)ccc(NCCNCCO)c21 [MITOXANTRONE]				Activity [4]: Non-Toxic; T/C [5]: 32%; Activity [6]: 93.24%; inhibition in vivo at 50 mg/kg [7]: 59.8%; Activity [8]: Active; Activity [9]: Non-Toxic; Activity [10]: Non-Toxic; Activity [11]: Non-Toxic; Activity [12]: Active; Activity [13]: Non-Toxic; Activity [14]: 77.86%
Cc1[nH]c2ccccc2c1C1=C(Cl)C(=O)C(N2CCN(C=O)CC2)=C(Cl)C1=O	200	740	370	
Cc1[nH]c2ccccc2c1C1=C(Cl)C(=O)C(N2CCOCC2)=C(Cl)C1=O	200	250	170	Activity [15]: 31.74%; Activity [16]: 10.44%; Activity [17]: 7.67%; Activity [18]: 81.89%
COc1ccc(/C=C\c2cc(OC)c(OC)c(OC)c2)cc1O [COMBRETASTATIN A4]				Activity [15]: 25.55%; Activity [16]: 8.4%; Activity [17]: 8%; Activity [18]: 91.6%
Cc1[nH]c2ccccc2c1C1=C(Cl)C(=O)C(Cl)=C(NCCOc2ccccc2)C1=O	710	> 10000	> 10000	

Continued, in another order:

IC50 [1] [nM]	IC50 [2] [nM]	IC50 [3] [nM]	Structure (SMILES)	further results
170	920	670	C#CCNC1=C(Cl)C(=O)C(c2c(C)[nH]c3ccccc23)=C(Cl)C1=O	
190	190	160	C#CCNC1=C(Cl)C(=O)C(Cl)=C(c2c(C)[nH]c3ccccc23)C1=O	
830	3110	440	Cc1[nH]c2ccccc2c1C1=C(Cl)C(=O)C(NCCc2cc3ccccc3[nH]2)=C(Cl)C1=O	
620	> 10000	> 10000	Cc1[nH]c2ccccc2c1C1=C(Cl)C(=O)C(Cl)=C(NCCc2cc3ccccc3[nH]2)C1=O	
1490	9730	8640	COc1ccc(CCNC2=C(Cl)C(=O)C(Cl)=C(c3c(C)[nH]c4ccccc34)C2=O)cc1OC	
260	220	8380	COC(=O)/C=C/C(=O)OCCN1CCN(C2=C(Cl)C(=O)C(Cl)=C(c3c(C)[nH]c4ccccc34)C2=O)CC1	
140	330	320	COC(=O)/C=C/C(=O)OCCN1CCN(C2=C(Cl)C(=O)C(c3c(C)[nH]c4ccccc34)=C(Cl)C2=O)CC1	
